# Data as given in ChEMBL document CHEMBL1201862, “PubChem BioAssay data set” (2004).
#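 96-well plates; 48 h exposure; 5 concentrations. Endpoints by linear interpolation between flanking doses. Not reached: highest tested concentration assigned. GI50 = concentration required for 50% inhibition of growth.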 Active and inactive are the calls of the source. Cut-off read from the data, not from the text of the source: active = GI50 up to about 1.1 µM and inactive = higher.
# Assays:
# Test in all cases: NCI anticancer screen, dose series, 48 h
# [1] = test system: BT-549
# [2] = test system: HCT-15
# [3] = test system: HL-60
# [4] = test system: HOP-62
# [5] = test system: HOP-92
# [6] = test system: HT-29
# [7] = test system: Hs-578T
# [8] = test system: IGROV-1
# [9] = test system: LOX IMVI
# [10] = test system: Malme-3M
# [11] = test system: NCI-H226
# [12] = test system: NCI-H522
# [13] = test system: NCI/ADR-RES
# [14] = test system: OVCAR-5
# [15] = test system: RPMI-8226
# [16] = test system: RXF 393
# [17] = test system: SF-295
# [18] = test system: SNB-19
# [19] = test system: UO-31
# [20] = test system: A498
Structure (SMILES),GI50 [1],GI50 [2],GI50 [3],GI50 [4],GI50 [5],GI50 [6],GI50 [7],GI50 [8],GI50 [9],GI50 [10],GI50 [11],GI50 [12],GI50 [13],GI50 [14],GI50 [15],GI50 [16],GI50 [17],GI50 [18],GI50 [19],GI50 [20]
CN(C)/N=N/c1[nH]cnc1C(N)=O [DACARBAZINE],51.3 µM (inactive),94.6 µM,14.9 µM (inactive),24.5 µM (inactive),30.3 µM (inactive),87.7 µM (inactive),63 µM (inactive),68.5 µM (inactive),11.7 µM (inactive),41.5 µM (inactive),75.2 µM (inactive),67.1 µM (inactive),66.4 µM (inactive),81.5 µM (inactive),19.1 µM (inactive),82.8 µM (inactive),55.1 µM (inactive),> 99.1 µM (inactive),32.1 µM (inactive),
Cc1ccc(C(=O)N(C2CCCCC2)C2CCCCC2)cc1/N=N/N(C)C,13.9 µM (inactive),14.1 µM,6.07 µM (inactive),12.3 µM (inactive),11 µM (inactive),6.08 µM (inactive),21.3 µM (inactive),15.6 µM (inactive),15.8 µM (inactive),16.2 µM (inactive),19.7 µM (inactive),6.01 µM (inactive),19.5 µM (inactive),19 µM (inactive),8.75 µM (inactive),,11.4 µM (inactive),12.6 µM (inactive),12.8 µM (inactive),
c1ccc(-c2cc(-c3ccncc3)cc(-c3ccncc3)n2)cc1,> 100 µM (inactive),> 100 µM,> 100 µM (inactive),33.3 µM (inactive),,> 100 µM (inactive),38.5 µM (inactive),> 100 µM (inactive),> 100 µM (inactive),> 100 µM (inactive),> 100 µM (inactive),18.2 µM (inactive),> 100 µM (inactive),> 100 µM (inactive),> 100 µM (inactive),> 100 µM (inactive),62.2 µM (inactive),45.2 µM (inactive),> 100 µM (inactive),
CC1(C)C2CC(O)C1(C)CC2=O (stereo unspecified),> 100 µM (inactive),> 100 µM,> 100 µM (inactive),> 100 µM (inactive),> 100 µM (inactive),> 100 µM (inactive),> 100 µM (inactive),> 100 µM (inactive),> 100 µM (inactive),> 100 µM (inactive),> 100 µM (inactive),> 100 µM (inactive),> 100 µM (inactive),> 100 µM (inactive),> 100 µM (inactive),> 100 µM (inactive),> 100 µM (inactive),> 100 µM (inactive),> 100 µM (inactive),
CN(C)c1ccc(/C=N\NC(=O)CSCC(=O)N/N=C/c2ccc(N(C)C)cc2)cc1,23.8 µM (inactive),16.4 µM,70.5 µM (inactive),62.8 µM (inactive),> 100 µM (inactive),78.5 µM (inactive),20.6 µM (inactive),19.4 µM (inactive),33.2 µM (inactive),> 100 µM (inactive),34.2 µM (inactive),27.6 µM (inactive),36 µM (inactive),60.5 µM (inactive),33.3 µM (inactive),24.9 µM (inactive),31.1 µM (inactive),> 100 µM (inactive),30.8 µM (inactive),
CN(C)c1ccc2oc(=O)c3ccccc3c2c1,34.4 µM (inactive),> 100 µM,> 100 µM (inactive),21 µM (inactive),35.2 µM (inactive),> 100 µM (inactive),31.7 µM (inactive),51.4 µM (inactive),> 100 µM (inactive),> 100 µM (inactive),46.7 µM (inactive),55.8 µM (inactive),,> 100 µM (inactive),> 100 µM (inactive),31.5 µM (inactive),28.8 µM (inactive),23.1 µM (inactive),,34.8 µM (inactive)
COc1cccc(CC2C(=O)N/C(=N\C(C)=O)N2C)c1OC(C)=O (stereo unspecified),> 100 µM (inactive),> 100 µM,> 100 µM (inactive),> 100 µM (inactive),> 100 µM (inactive),> 100 µM (inactive),> 100 µM (inactive),> 100 µM (inactive),> 100 µM (inactive),,> 100 µM (inactive),> 100 µM (inactive),> 100 µM (inactive),> 100 µM (inactive),,> 100 µM (inactive),> 100 µM (inactive),> 100 µM (inactive),> 100 µM (inactive),
COC(=O)CNC(=O)C(CSC(=O)OCC1c2ccccc2-c2ccccc21)NC(=O)CCC(NC(=O)OCC1c2ccccc2-c2ccccc21)C(=O)OC (stereo unspecified),17.5 µM (inactive),28 µM,19.1 µM (inactive),21.1 µM (inactive),13.5 µM (inactive),,28.4 µM (inactive),17.8 µM (inactive),3.27 µM (inactive),25.7 µM (inactive),99.1 µM (inactive),4.65 µM (inactive),41 µM (inactive),25.6 µM (inactive),23.1 µM (inactive),16.8 µM (inactive),17.4 µM (inactive),23.8 µM (inactive),18.7 µM (inactive),
CC(=O)OCC1=C2C(OC(=O)C(C)C)CC3(COC(C)=O)OC3/C=C\C3(C)OC3C2OC1=O (stereo unspecified),> 100 µM (inactive),> 100 µM,34.4 µM (inactive),> 100 µM (inactive),,> 100 µM (inactive),> 100 µM (inactive),> 100 µM (inactive),> 100 µM (inactive),> 100 µM (inactive),> 100 µM (inactive),,,> 100 µM (inactive),> 100 µM (inactive),> 100 µM (inactive),> 100 µM (inactive),> 100 µM (inactive),> 100 µM (inactive),> 100 µM (inactive)
CC1=C(C)C(=O)O[C@@H]([C@](C)(O)[C@]2(O)CC[C@@]3(O)[C@@H]4C[C@H](O)[C@]5(O)[C@@H](O)C=CC(=O)[C@]5(C)[C@H]4CC[C@]23C)C1,> 100 µM (inactive),> 100 µM,18 µM (inactive),> 100 µM (inactive),> 100 µM (inactive),86.3 µM (inactive),> 100 µM (inactive),> 100 µM (inactive),58.5 µM (inactive),> 100 µM (inactive),> 100 µM (inactive),42.3 µM (inactive),,> 100 µM (inactive),49.9 µM (inactive),> 100 µM (inactive),> 100 µM (inactive),> 100 µM (inactive),> 100 µM (inactive),> 100 µM (inactive)
O=C(NCCN1CCOCC1)c1ccc(I)cc1,> 100 µM (inactive),> 100 µM,> 100 µM (inactive),,,> 100 µM (inactive),> 100 µM (inactive),> 100 µM (inactive),> 100 µM (inactive),,> 100 µM (inactive),,> 100 µM (inactive),> 100 µM (inactive),> 100 µM (inactive),,,> 100 µM (inactive),> 100 µM (inactive),> 100 µM (inactive)
